For seven compounds, GI50 and TGI results are on record in PubChem BioAssay (NCI).

In general, GI50 refers to the concentration that inhibits growth by half. A word on the TGI: it is the concentration giving total growth inhibition. Read a high TGI as lower sensitivity of the cells.

Among the test systems are 786-0 renal; HOP-92 NSCLC; MALME-3M melanoma; OVCAR-4 ovarian; OVCAR-5 ovarian; RPMI-8226 leukemia; SN12C renal; SNB-75 CNS; TK-10 renal; UACC-62 melanoma.
Common to all, as to assay: DTP human tumour cell line panel, 48 h

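Five compound concentrations were applied to cells in 96-well plates for 48 hours; endpoints were derived by simple linear interpolation of the resulting dose-response curve. Abbreviation: GI50, concentration required for 50% inhibition of growth. Definition used: TGI = concentration required for complete inhibition of growth.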

With `COc1ccc(C/C(C)=C(\c2ccc(OCCN3CCOCC3)cc2)c2ccc(OC(=O)Cc3ccccc3)cc2)cc1`, the GI50 in the test on 786-0 renal is 510 nM; with HOP-92 NSCLC it was 280 nM; in the test on MALME-3M melanoma it was 531 nM; in the test with OVCAR-4 ovarian, 1030 nM; with OVCAR-5 ovarian, 951 nM; with RPMI-8226 leukemia it was 531 nM. Besides, the GI50 in the test with SN12C renal is 612 nM; with SNB-75 CNS, 692 nM; with TK-10 renal, 778 nM; in the test on UACC-62 melanoma, 527 nM. Moreover, the TGI was determined as 994 nM in the test with 786-0 renal; 901 nM in the test on HOP-92 NSCLC; 1030 nM with MALME-3M melanoma; 10200 nM in the test on OVCAR-4 ovarian; 10700 nM with OVCAR-5 ovarian; 1310 nM in the test with RPMI-8226 leukemia. Besides, the total growth inhibition concentration (TGI) in the test with SN12C renal was 1440 nM; in the test with SNB-75 CNS, 4470 nM; with TK-10 renal, 2030 nM; with UACC-62 melanoma, 1060 nM.

On to `CCN(CCNc1ccc(C)c2sc3cc(Cl)ccc3c(=O)c12)CC(C)O` (stereo not drawn), for which the GI50 in the test on 786-0 renal was 1440 nM; with HOP-92 NSCLC, 1610 nM; in the test on MALME-3M melanoma it was 1360 nM; in the test on OVCAR-4 ovarian it was 4920 nM; with RPMI-8226 leukemia it was 1710 nM; in the test with SN12C renal, 2760 nM. Also, the GI50 in the test with SNB-75 CNS was 1750 nM; in the test on TK-10 renal, 1510 nM; with UACC-62 melanoma it was 1820 nM. The TGI in the test on 786-0 renal is 2750 nM; in the test on HOP-92 NSCLC, 4280 nM; in the test on MALME-3M melanoma it was 2770 nM; in the test with OVCAR-4 ovarian, 24900 nM; in the test on RPMI-8226 leukemia it was 3670 nM; in the test on SN12C renal, 10500 nM. The TGI with SNB-75 CNS stood at 3570 nM; with TK-10 renal, 2910 nM; in the test with UACC-62 melanoma, 3440 nM.

As to `Cn1ccnc1C(=O)/C=C/c1ccc(CC(=O)Nc2ccc(S(F)(F)(F)(F)F)cc2)cc1`, the GI50 in the test with 786-0 renal is 788 nM; with HOP-92 NSCLC, 1130 nM; with MALME-3M melanoma, 2950 nM; in the test with OVCAR-4 ovarian, 2350 nM; in the test with OVCAR-5 ovarian, 2120 nM; in the test with RPMI-8226 leukemia, 517 nM. For the same compound, the GI50 was 2930 nM with SN12C renal, 1830 nM in the test on SNB-75 CNS, 4050 nM with TK-10 renal and 2890 nM in the test with UACC-62 melanoma. Further, the TGI with 786-0 renal was 3000 nM; with HOP-92 NSCLC, 3920 nM; in the test on MALME-3M melanoma, 6650 nM; with OVCAR-4 ovarian, 9070 nM; in the test with OVCAR-5 ovarian, 5100 nM; in the test with RPMI-8226 leukemia it was 2030 nM. The concentration for total growth inhibition (TGI) is 7170 nM in the test with SN12C renal, 3880 nM in the test with SNB-75 CNS, 9500 nM in the test with TK-10 renal and 5870 nM in the test on UACC-62 melanoma.

For `COC(=O)c1cc(-c2cc(OC)c(OC)c(OC)c2)[nH]c1N/N=C/c1c(Cl)cccc1Cl`, the GI50 in the test with 786-0 renal was 2030 nM; with HOP-92 NSCLC, 857 nM; in the test on MALME-3M melanoma, 1470 nM; with OVCAR-4 ovarian, 666 nM; with OVCAR-5 ovarian, 2250 nM; with RPMI-8226 leukemia it was 1940 nM. The GI50 in the test with SN12C renal was 3300 nM; with SNB-75 CNS, 941 nM; in the test with TK-10 renal, 528 nM; with UACC-62 melanoma, 1470 nM. Further, the concentration for total growth inhibition (TGI) with 786-0 renal was 7180 nM; in the test with HOP-92 NSCLC it was 7480 nM; in the test with MALME-3M melanoma, 8200 nM; with OVCAR-4 ovarian, 2680 nM; in the test with OVCAR-5 ovarian, 13400 nM; in the test on RPMI-8226 leukemia it was over 34400 nM. Moreover, the TGI with SN12C renal was over 74300 nM; with SNB-75 CNS it was 4620 nM; in the test with TK-10 renal, 2680 nM; with UACC-62 melanoma it was 16200 nM.

As to `O=C(/C=C/c1cccs1)c1ccc(Nc2nc(Nc3ccc(F)cc3)nc(Nc3ccc(F)cc3)n2)cc1`, the GI50 with 786-0 renal is 38500 nM; with HOP-92 NSCLC it was 25800 nM; with MALME-3M melanoma, 40400 nM; in the test with OVCAR-4 ovarian it was 17700 nM; with OVCAR-5 ovarian it was over 100000 nM; in the test on RPMI-8226 leukemia, 20900 nM. Also, the GI50 was over 100000 nM in the test with SN12C renal, 22500 nM in the test with SNB-75 CNS, 40400 nM in the test with TK-10 renal and over 100000 nM in the test with UACC-62 melanoma. In addition, the TGI with 786-0 renal was over 100000 nM; with HOP-92 NSCLC it was 57800 nM; in the test with MALME-3M melanoma, over 100000 nM; with OVCAR-4 ovarian it was 46200 nM; in the test with OVCAR-5 ovarian it was over 100000 nM; with RPMI-8226 leukemia, over 100000 nM. Moreover, the TGI with SN12C renal is over 100000 nM; in the test with SNB-75 CNS, 70400 nM; with TK-10 renal, over 100000 nM; with UACC-62 melanoma, over 100000 nM.

For `C=CC1=C[C@@H]2[C@@H]3O[C@]4(CC[C@H](O4)[C@@H](C)C[C@@H](O)C3=O)C[C@H](O)C3=NCC[C@@]32CC1`, the GI50 in the test on 786-0 renal, with HOP-92 NSCLC, in the test with MALME-3M melanoma, in the test on OVCAR-4 ovarian, in the test with OVCAR-5 ovarian and in the test with RPMI-8226 leukemia was under 3.33 nM in each case. Further, the GI50 in the test with SN12C renal, with SNB-75 CNS, in the test on TK-10 renal and with UACC-62 melanoma was under 3.33 nM each time. In addition, the concentration for total growth inhibition (TGI) in the test on 786-0 renal is 3.41 nM; in the test on HOP-92 NSCLC it was 6.06 nM; with MALME-3M melanoma it was under 3.33 nM; in the test with OVCAR-4 ovarian, 5.22 nM; in the test on OVCAR-5 ovarian, 5.13 nM; in the test on RPMI-8226 leukemia, under 3.33 nM. Also, the TGI in the test with SN12C renal was 11 nM; with SNB-75 CNS it was under 3.33 nM; in the test on TK-10 renal, 3.85 nM; with UACC-62 melanoma, 4.12 nM.

Take `COC1(O)C(=O)c2ccccc2OC1(OC)c1ccccc1` (stereo not drawn): the concentration for total growth inhibition (TGI) with 786-0 renal, in the test on HOP-92 NSCLC, with MALME-3M melanoma, with OVCAR-4 ovarian, in the test on OVCAR-5 ovarian and with RPMI-8226 leukemia was over 100000 nM throughout. Besides, the TGI in the test on SN12C renal, with SNB-75 CNS, in the test on TK-10 renal and with UACC-62 melanoma was over 100000 nM in each case.
